# Assay results published in patent publication US11225642B2, “Method for producing renal progenitor cells” (KYOTO UNIVERSITY, priority 2013, dated 2022).
# Assays:
# [1] = test system: OSR1-GFP & SIX2-tdTomato reporter human iPS cell line; assay: SIX2-positive cell induction method 1, SIX2-tdTomato-positive cell rate by flow cytometer; type: cell-based; conditions: for SIX2-positive cell rate: induction method 1 stage 3, Dorsomorphin replaced with 0.5 μM LDN193189 and TGFβ1 with 10 ng/ml TGFβ2 or TGFβ3
# Procedure: The OSR1-GFP & SIX2-tdTomato reporter human iPS cell line obtained by the method in Example 1 was cultured at 37° C. in a 2-5% CO2 atmosphere to become confluent on 10-cm dishes containing a primate ES/iPS cell medium (ReproCELL) supplemented with 5 ng/ml bFGF (Wako) with the use of SNL cells (McMahon, A. P. and Bradley, A. (1990) Cell 62; 1073-1085) (the cells being treated with 15.5 μg/ml mitomycin (Kyowa Hakko Kirin Co., Ltd.) for 2 to 3 hours and seeded at a density of 3×10^5 cells/10-cm dish) as feeder cells. A CTK solution (2.5% Trypsin (Invitrogen), 1 mg/ml Collagenase IV (Invitrogen), 0.1 M CaCl2, 10 mL KnockOut SR (Invitrogen), and 29.5 mL H2O) was added to dissociate the cells. After removal of the feeder cells, the dissociated cells were suspended in a DMEM/F12 medium containing 1 μM CHIR99021 (Stemgent, 04-0004), 100 ng/ml Activin A (R&D Systems, 338-AC), 1% GlutaMAX (100×) (Invitrogen, 35050-061), 2% FBS (Hyclone), and 0.5% PenStrep (Invitrogen, 10565). Then, the cell suspensions were transferred to a low cell binding plate (LOW CELL BIND 6 WELL DISH (Nunc, 145383)) such that each well contained one-third to one-sixth of the cell suspension obtained from the 10-cm dish, followed by suspension culture at 37° C. in a 5% CO2 atmosphere for 2 days.
# The cell mass obtained at stage 1 was transferred to a 24-well or 6-well dish coated with Matrigel (BD Matrigel Matrix Growth Factor Reduced (BD Biosciences, 356230) (the dish being coated with 0.2 mg/ml Matrigel in DMEM and treated at 37° C. for 30 minutes or at 4° C. overnight) or a 24-well or 6-well dish coated with Synthemax (Corning Synthemax II-SC Substrate (Corning, 3535XX1)) (the dish being coated with Synthemax diluted 40-fold with sterile water and treated at room temperature for 2 hours). The medium was exchanged with a DMEM/F12 medium containing 1 μM CHIR99021, 100 ng/ml BMP7 (Recombinant human BMP7 (R&D Systems, 3534-BP)), 0.1% 2-mercaptoethanol (1000×) (Invitrogen, 21985), 1% GlutaMAX (100×), 10% KnockOut SR (Invitrogen), 0.1 mM MEM NEAA (Invitrogen, 11140), and 0.5% PenStrep, followed by adhesion culture at 37° C. in a 5% CO2 atmosphere for 3 to 6 days. In the case of culture for 3 days or more, the medium was exchanged every 3 days with a medium having the same conditions.
# The medium was removed from the cells obtained at stage 2. The cells were washed with PBS and then the medium was exchanged with a DMEM/F12 medium containing 5 ng/ml TGFβ1 (Peprotech, 100-21C), 0.5 μM Dorsomorphin (AMPK Inhibitor, Compound C (Merck, 171260)), 0.1% 2-mercaptoethanol (1000×), 1% GlutaMAX (100×), 10% KnockOut SR, 0.1 mM MEM NEAA, and 0.5% PenStrep, followed by suspension culture at 37° C. in a 5% CO2 atmosphere for 15 to 22 days. In this case, the medium was exchanged every 3 days with a medium having the same conditions.
# At stage 3 of SIX2-positive cell induction method 1, Dorsomorphin was replaced with 100 ng/ml Noggin (Peprotech), 0.5 μM LDN193189 (Axon MedChem, 1509), or 0.5 μM DMH1 (Tocris, 4126) for differentiation induction in the aforementioned manner.
# At stage 3 of SIX2-positive cell induction method 1, TGFβ1 was exchanged with 50 μM IDE1 (Tocris) or 50 μM IDE2 (Tocris) for differentiation induction in the aforementioned manner.
# At stage 3 of SIX2-positive cell induction method 1, Dorsomorphin was replaced with 0.5 μM LDN193189, while TGFβ1 with 10 ng/ml TGFβ2 (Peprotech) or 10 ng/ml TGFβ3 (R&D), for differentiation induction in the aforementioned manner. As a result, the SIX2-positive cell rates were 8.6% and 9.3%, respectively (FIGS. 2G and 2H).
# [2] = test system: OSR1-GFP & SIX2-tdTomato reporter human iPS cell line (4A6C3-10); assay: SIX2-positive cell induction method 4, OSR1+SIX2+ cell rate by flow cytometer; type: cell-based
# Procedure: 4A6C3-10 was cultured at 37° C. in a 2% to 5% CO2 atmosphere to become 70% to 80% confluent on 10-cm dishes containing a primate ES medium (ReproCELL) supplemented with 500 U/ml penicillin/streptomycin (Invitrogen) and 5 ng/ml recombinant human basic fibroblast growth factor (bFGF, Wako) with the use of ICR-mouse-embryo (fetus 12.5 days old)-derived mouse embryonic fibroblasts (MEF) or SNL feeder cells (McMahon, A. P. and Bradley, A. (1990) Cell 62; 1073-1085) (these cells being previously treated with 15.5 μg/ml mitomycin (Kyowa Hakko Kirin Co., Ltd.) for 2 to 3 hours and seeded at a density of 2×10^5 cells/6-cm dish) as feeder cells. The 10-cm plates containing the cells were rinsed with PBS and treated with a CTK solution (PBS containing 0.25% Trypsin (Invitrogen), 0.1% Collagenase IV (Invitrogen), 20% KnockOut SR (KSR, Invitrogen), and 1 mM CaCl2) at 37° C. for 4 minutes. The CTK solution was removed by rinsing with PBS. Then, the medium was exchanged with DMEM/F12+Glutamax (Invitrogen) containing 0.1 mM MEM NEAA (Invitrogen), 1000 U/ml penicillin/streptomycin, 0.55 mM 2-mercaptoethanol (Invitrogen), and 20% KSR. Subsequently, the cells were scraped using a cell scraper and seeded on 6-cm plates coated with 0.2% gelatin to remove feeder cells. One hour later, the cells were washed with DMEM/F12+Glutamax [stage-1 medium] containing 500 U/ml penicillin/streptomycin and 2% FBS (HyClone), transferred to ultra-low attachment dishes (Corning 3471) having a stage-1 medium containing 100 ng/ml recombinant human/mouse/rat Activin A (R&D Systems) and 1 μM CHIR99021, and cultured at 37° C. in a 5% CO2 atmosphere for 2 days.
# In order to differentiate into the intermediate mesoderm, the cell mass (embryoid body (EB)) obtained at stage 1 was transferred to a 24-well plate coated with Synthemax II (Corning), the medium was exchanged with DMEM/F12+Glutamax containing 0.1 mM MEM NEAA, 500 U/ml penicillin/streptomycin, 0.55 mM 2-mercaptoethanol, 10% KSR, 100 ng/ml BMP7 (recombinant human BMP7, R&D Systems), and 1 μM CHIR99021, and the cells were cultured at 37° C. in a 5% CO2 atmosphere for 3 days.
# After stage 2, the medium was exchanged with DMEM/F12+Glutamax containing 0.1 mM MEM NEAA, 500 U/ml penicillin/streptomycin, 0.55 mM 2-mercaptoethanol, 10% KSR, 1 μM TTNPB (Sigma T3757), and 5 ng/ml TGFβ1 (Peprotech), followed by culturing at 37° C. in a 5% CO2 atmosphere for 5 days. The medium was exchanged with a medium having the same conditions two days after the start of culture (i.e., day 8 from the start of stage 1 (day 1)).
# After stage 3, the medium was exchanged with DMEM/F12+Glutamax containing 0.1 mM MEM NEAA, 500 U/ml penicillin/streptomycin, 0.55 mM 2-mercaptoethanol, 10% KSR, 5 ng/ml TGFβ1, and 0.5 μM DMH1 (Tocris), followed by culturing at 37° C. in a 5% CO2 atmosphere for 17 days (i.e., culturing for 28 days in total from the start of stage 1 (day 1); FIG. 3A). In this case, the medium was exchanged every 3 days with a medium having the same conditions. […] In addition, the OSR1^+SIX2^+ cell rate reached the maximum level on day 25 of culture and then it was confirmed to be maintained until day 28 of culture (FIG. 3D).
# Induction of OSR1^+SIX2^+ cells from the 4A6C3-10 iPS cell line was examined using different combinations of TGFβ signaling activators and BMP inhibitors. Specifically, induction of OSR1^+SIX2^+ cells from 4A6C3-10 was examined under conditions 1) to 10) described below. […]
# [3] = induction method 1 stage 3, Dorsomorphin replaced with 100 ng/ml Noggin, 0.5 μM LDN193189 or 0.5 μM DMH1, with TGFβ1
# [4] = induction method 1 stage 3, TGFβ1 exchanged with 50 μM IDE1 or 50 μM IDE2, with Dorsomorphin
molecule,measurement,setting,value
"c1ccc2c(-c3cnn4cc(-c5ccc(N6CCNCC6)cc5)cnc34)ccnc2c1 [LDN193189, 4-(6-(4-(piperazin-1-yl)phenyl)pyrazolo[1,5-a]pyrimidin-3-yl)quinoline]",SIX2-tdTomato-positive cell rate,[1]; [3],20.4%
"O=C(O)CCCCCC(=O)NN=C1CCCC1 [IDE2, 7-(2-cyclopentylidenehydrazinyl)-7-oxoheptanoic acid]",SIX2-tdTomato-positive cell rate,[1]; [4],39.4%
"CC(C)Oc1ccc(-c2cnc3c(-c4ccnc5ccccc45)cnn3c2)cc1 [DMH1, 4-[6-[4-(1-Methylethoxy)phenyl]pyrazolo[1,5-a]pyrimidin-3-yl]-quinoline]",SIX2-tdTomato-positive cell rate,[1]; [3],15.4%
same,induction of OSR1+SIX2+ cells,"[2]; Example 8, comparison of combinations of TGFβ signaling activators and BMP inhibitors at stage 4 (FIG. 4)",effective
same,OSR1-positive and SIX2-positive (OSR1+SIX2+) cell rate,"[2]; induction method 4, stage 4 medium with 5 ng/ml TGFβ1 and 0.5 μM DMH1, day 28 of culture",32.8%
NC(=O)c1ccc(-c2nc(-c3ccc4c(c3)OCO4)c(-c3ccccn3)[nH]2)cc1 [SB431542],differentiation into OSR1+SIX2+ cells,[2]; stage 4 medium with 10 μM SB431542 together with 5 ng/ml TGFβ1 and 0.5 μM DMH1 (condition 11),inhibited
"O=C(O)CCCCCC(=O)N/N=C\c1ccccc1C(=O)O [IDE1, (Z)-2-((2-(6-carboxyhexanoyl)hydrazono)methyl)benzoic acid]",SIX2-tdTomato-positive cell rate,[1]; [4],8.4%
"Noggin: BMP inhibitor protein (Peprotech) (protein, UniProt Q13253 28-232, looked up) Noggin: QHYLHIRPAPSDNLPLVDLIEHPDPIFDPKEKDLNETLLRSLLGGHYDPGFMATSPPEDRPGGGGGAAGGAEDLAELDQLLRQRPSGAMPSEIKGLEFSEGLAQGKKQRLSKKLRRKLQMWLWSQTFCPVLYAWNDLGSRFWPRYVKVGSCFSKRSCSVPEGMVCKPSKSVHLTVLRWRCQRRGGQRCGWIPIQYPIISECKCSC",SIX2-tdTomato-positive cell rate,[1]; [3],7.5%
"TGFβ2: TGFβ signaling activator protein (Peprotech) (protein, UniProt P61812 303-414, looked up) Transforming growth factor …: ALDAAYCFRNVQDNCCLRPLYIDFKRDLGWKWIHEPKGYNANFCAGACPYLWSSDTQHSRVLSLYNTINPEASASPCCVSQDLEPLTILYYIGKTPKIEQLSNMIVKSCKCS",SIX2-positive cell rate,[1],8.6%
"TGFβ3: TGFβ signaling activator protein (R&D, Peprotech) (protein, UniProt P10600 301-412, looked up) Transforming growth factor …: ALDTNYCFRNLEENCCVRPLYIDFRQDLGWKWVHEPKGYYANFCSGPCPYLRSADTTHSTVLGLYNTLNPEASASPCCVPQDLEPLTILYYVGRTPKVEQLSNMVVKSCKCS",SIX2-positive cell rate,[1],9.3%
